Source: ChEMBL document CHEMBL4823263, “Discovery of 2-(3-(3-Carbamoylpiperidin-1-yl)phenoxy)acetic Acid Derivatives as Novel Small-Molecule Inhibitors of the β-Catenin/B-Cell Lymphoma 9 Protein-Protein Interaction” (J Med Chem, 2021)
Calls of active or inactive are those of the source. The calls are words filed in the database; no cut-off is given here.

What was measured:
[1] = target: Protein Wnt-3a (Mus musculus) (UniProt P27467); test: Inhibition of mouse wnt3a expressed in human MDA-MB-231 cells assessed as cyclin D1 level at 10 uM incubated for […] by quantitative real-time PCR analysis relative to control; format: cell-based; design: scale not given: the % may be the effect or the level left
[2] = target: Protein Wnt-3a (Homo sapiens) (UniProt P56704); test: Inhibition of Wnt3a in human SW480 cells assessed as Axin2 level at 30 uM incubated for […] by quantitative real-time PCR analysis relative to control; format: cell-based; design: scale not given: the % may be the effect or the level left
[3] = target: T1, Cadherin-1 (Homo sapiens) (UniProt P12830); test: Disruption of full length beta-catenin/E-cadherin interaction in human HCT116 cells incubated for 24 hrs by co-immunoprecipitation assay; format: cell-based; details: HCT-116
T1 sequence (whole entry): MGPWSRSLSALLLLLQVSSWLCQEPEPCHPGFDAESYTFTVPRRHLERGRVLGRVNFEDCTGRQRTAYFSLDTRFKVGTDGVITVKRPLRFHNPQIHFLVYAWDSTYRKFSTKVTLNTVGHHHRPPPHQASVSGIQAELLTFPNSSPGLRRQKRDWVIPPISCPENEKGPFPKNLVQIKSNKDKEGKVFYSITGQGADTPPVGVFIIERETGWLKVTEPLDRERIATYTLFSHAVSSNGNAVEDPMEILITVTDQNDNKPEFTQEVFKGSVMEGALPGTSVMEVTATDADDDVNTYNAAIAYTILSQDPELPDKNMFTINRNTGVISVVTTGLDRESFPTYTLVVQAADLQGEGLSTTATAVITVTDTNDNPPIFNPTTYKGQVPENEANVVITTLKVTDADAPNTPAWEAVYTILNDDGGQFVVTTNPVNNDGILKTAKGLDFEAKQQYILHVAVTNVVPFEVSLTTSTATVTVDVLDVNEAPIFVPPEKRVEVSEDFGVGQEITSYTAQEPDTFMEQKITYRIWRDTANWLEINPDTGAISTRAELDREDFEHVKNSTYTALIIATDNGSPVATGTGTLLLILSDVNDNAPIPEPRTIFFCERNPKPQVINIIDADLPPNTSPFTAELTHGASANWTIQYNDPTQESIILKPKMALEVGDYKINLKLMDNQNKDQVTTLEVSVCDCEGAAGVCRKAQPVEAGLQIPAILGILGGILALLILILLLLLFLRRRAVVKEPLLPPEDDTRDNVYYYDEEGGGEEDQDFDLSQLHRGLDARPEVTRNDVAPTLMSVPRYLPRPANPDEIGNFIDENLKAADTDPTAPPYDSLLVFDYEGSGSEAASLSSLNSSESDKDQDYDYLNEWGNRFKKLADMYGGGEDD

SW480 [4] = test: Antiproliferative activity against human SW480 cells harboring beta-catenin pcDNA3.1 vector incubated for 72 hrs by MTS assay; format: functional, cell-based; details: SW480, 72 h
SW480 [5] = test: Inhibition of Wnt/beta-catenin transactivation signalling in human SW480 cells harboring mutant tcf4 binding sites assessed as relative activity at 6.25 uM incubated for 24 hrs by FOPFlash luciferase assay relative to control; format: cell-based; design: scale not given: the % may be the effect or the level left
[6] = Downregulation of HPRT in human MDA-MB-231 cells assessed as HPRT level at 30 uM incubated for […] by quantitative real-time PCR analysis relative to control; format: ADME, cell-based; details: mda-mb-231, 30 µM
[7] = Downregulation of HPRT level in human SW480 cells at 10 uM incubated for […] by quantitative real-time PCR analysis relative to control; format: ADME, cell-based; details: sw480, 10 µM
MDA-MB-468 = test: Antiproliferative activity against human MDA-MB-468 cells incubated for 72 hrs by MTS assay; format: functional, cell-based; details: MDA-MB-468, 72 h

Protein Wnt-3a (Mus musculus), sequence (P27467 whole entry): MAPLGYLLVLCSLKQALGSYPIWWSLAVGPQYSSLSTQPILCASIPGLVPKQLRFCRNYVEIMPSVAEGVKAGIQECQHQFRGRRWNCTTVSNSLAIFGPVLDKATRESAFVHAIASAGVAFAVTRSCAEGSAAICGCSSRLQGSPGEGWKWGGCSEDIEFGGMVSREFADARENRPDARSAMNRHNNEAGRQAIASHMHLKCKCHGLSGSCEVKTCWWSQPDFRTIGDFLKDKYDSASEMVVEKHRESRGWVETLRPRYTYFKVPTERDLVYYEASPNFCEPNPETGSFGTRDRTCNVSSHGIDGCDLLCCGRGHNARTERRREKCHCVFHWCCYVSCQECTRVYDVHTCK
Protein Wnt-3a (Homo sapiens), sequence (P56704 whole entry): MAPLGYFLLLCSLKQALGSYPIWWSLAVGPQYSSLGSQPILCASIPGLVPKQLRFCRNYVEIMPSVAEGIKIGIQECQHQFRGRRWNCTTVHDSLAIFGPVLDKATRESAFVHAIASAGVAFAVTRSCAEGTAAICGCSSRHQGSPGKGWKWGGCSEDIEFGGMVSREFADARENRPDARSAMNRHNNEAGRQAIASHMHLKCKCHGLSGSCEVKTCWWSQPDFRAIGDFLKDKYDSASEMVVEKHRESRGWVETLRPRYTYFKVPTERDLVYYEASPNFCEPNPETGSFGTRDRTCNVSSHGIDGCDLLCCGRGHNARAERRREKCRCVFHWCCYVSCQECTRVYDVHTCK

Activity [1]: 77%
Activity [2]: 42%
Activity [3]: inactive
IC50 (SW480 [4]): 86 µM
Activity [6]: 99%
Activity [7]: 102%
IC50 (MDA-MB-468): 17.8 µM
Compound: CC(C)(Oc1cccc(N2CCC[C@H](C(=O)N(Cc3ccc(-c4cccs4)cc3)C3CC3)C2)c1)C(=O)NS(=O)(=O)c1ccc(C#N)cc1
Activity (SW480 [5]): 97%
